Experimental data as given in US20130096160A1, “ARYLTHIAZOLYL PIPERIDINES AND RELATED COMPOUNDS AS MODULATORS OF SURVIVAL MOTOR NEURON (SMN) PROTEIN PRODUCTION” (Secretary, Department of Health and Human Services, priority 2010, published 2013).

Test system: SMN2-luciferase reporter
Assay: SMN2-luciferase reporter qHTS assay
Assay type: cell-based, human
Set-up: key to Curve Class: A curve class of 1.1 is a full agonist/antagonist; a curve class of 4 indicates the compound is inactive
Conditions: for Curve Class: agonist/antagonist character of the concentration-response, lower values = more significant concentration-response; for Increased SMN2 activity: percent increase (or decrease) in SMN2 levels compared to control in which no test compound is added
From the text: A cell-based quantitative high throughput screening (qHTS) assay is used to identify compounds able to increase SMN production. The assay uses a SMN2-luciferase reporter to determine if exon 7 of the SMN gene is expressed, which correlates with increased full-length SMN production from the SMN2 gene. As controls, a homologue SMN1-luciferase reporter cell line looks for variations in expression of the SMN1 gene and a cell line with just the luciferase reporter looks at the capacity of the compounds to inhibit luciferase. In addition, increments in SMN production by lead compounds were confirmed by Western-Blot analysis using SMA patient fibroblasts.
For the qHTS assay, concentration-response profiles are generated at the primary-screen level for each library compound to minimize the number of false positives. A dilution series consisting of seven points separated by five-fold concentration differences is prepared for each compound, yielding a concentration series that spans a range of about four orders of magnitude, for example from a high concentration of 50 micromolar to a low concentration of 3.2 nanomolar and providing adequate data for fitting to a Hill equation. For the assay, the SMN2 reporter cell line was plated at a density of ˜2000 cells/well in complete media (phenol red free DMEM, 10% detacl calf serum, and 1× pen/strep), in 1536 well white solid bottom tissue culture treated plates (Greiner). Cells were allowed to adhere and recover at 37 C in 5% CO2 for 10-12 hours. Compounds were added to the plates by a Pintool (Kalypsys) at a volume of 23 nl/well. Cells were incubated in the presence of compounds for 2 days at 37 C in 5% CO2. In order to quantify luciferase reporter levels, 3 ul/well of OneGlo (Promega) was added to each well and incubated at room temperature for 10 minutes. Luminescence from the reporter in each well is measured using a Viewlux CCD based imager (Perkin Elmer) with an integration time of 30 seconds and a binning of 2× in luminescence mode. Sodium butyrate was used as the positive control compound for luciferase induction and a column of 32 wells of 9.2 mM compound on each plate was used to monitor assay performance.
The SMN reporters used herein are modified from those previously described (M. L. Zhang, C. L. Lorson, E. J. Androphy and J. Zhou, An in vivo reporter system for measuring increased inclusion of exon 7 in SMN2 mRNA: potential therapy of SMA, Gene Ther 8 (2001), pp. 1532-1538.)
The sequence of the SMN1 reporter vector used herein is given in SEQ ID NO.:1, while that of the SMN2 reporter vector is given in SEQ ID NO.:2.
Each of the SMN reporters is constructed from three separate DNA fragments: (1) an SMN promotor sequence from the transcriptional reporter p 4.0T (SMN1) or p3.4C (SMN2) described in Monani, et al. Biochimica et Biophysica Acta 1445 (1999) 330-336; (2) a modification of the firefly luciferase splicing reporter for SMN1 or SMN2 described by Zhang et al; and (3) a 744 bp SMN cDNA fragment.
The 3.7 kB SMN1 promoter fragment is obtained by restriction of p4.0T with BglII and SacII. A 3.4 kB SMN2 promoter fragment is obtained by restriction of p3.4C with KpnI and SacII; a 300 bp BglII/KpnI fragment from p4.0T is then added to the 3.4 kB SMN2 promoter fragment to yield the final 3.7 kB SMN2 promoter fragment.
The modified SMN1 and SMN2 firefly luciferase splicing reporters are obtained by removing 4 kB of intron 6 in the original reporter system by restriction with SmaI/Swa followed by religation of the reporter. A 4 kB luciferase splicing reporter is then obtaind by digestion with XhoI and NotI.
Ths SMN cDNA fragment is obtained by generating the productof a polymerase chain reaction (PCR) on a cDNA preparation using […] (SEQ ID NO:3) as the forward primer and Tatctcgagtggtccagaaggaaatggaggcagcc (SEQ ID NO:4) as the reverse primer. The PCR product is then digested with XhoI and SacII. […]

Structure (SMILES) | Curve Class | Increased SMN2 activity [%]
CN(C)c1cccc(-c2nccc(N3CCC(C(N)=O)CC3)n2)c1 [Example 104, 1-(2-(3-(Dimethylamino)Phenyl)Pyrimidin-4-yl)Piperidine-4-Carboxamide] | 2.1 | 306.3
CC(C)COc1ccc(-c2csc(N3CCC(C(N)=O)CC3)n2)cc1 [Example 106, 1-(4-(4-Isobutoxyphenyl)Thiazol-2-yl)Piperidine-4-Carboxamide] | 1.2 | 54
CC(C)Oc1cccc(-c2csc(N3CCC(C(N)=O)CC3)n2)c1 [Example 107, 1-(4(3-Isopropoxyphenyl)Thiazol-2-yl)Piperidine-4-Carboxamide] | 1.1 | 605.6
Brc1ccc(-c2csc(N3CCNCC3)n2)cc1 [Example 108, 4-(4-Bromophenyl)-2-(Piperazin-1-yl)Thiazole] | −2.1 | −97.29
CC(=O)N1CCN(c2nc(-c3ccc(Br)cc3)cs2)CC1 [Example 110, 1-(4-(4-(4-Bromophenyl)Thiazol-2-yl)Piperazin-1-yl)Ethanone] | 1.1 | 234.5
NC1CCN(c2nc(-c3ccc(Br)cc3)cs2)CC1 [Example 111, 1-(4-(4-Bromophenyl)Thiazol-2-yl)Piperidin-4-Amine] | 1.1 | 182.6
Brc1ccc(-c2csc(N3CCC(c4nnn[nH]4)CC3)n2)cc1 [Example 112, 2-(4-(1H-Tetrazol-5-yl)Piperidin-1-yl)-4-(4-Bromophenyl)Thiazole] | 2.1 | 66.77
CC(=O)NC1CCN(c2nc(-c3ccc(Br)cc3)cs2)CC1 [Example 113, N-(1-(4-(4-Bromophenyl)Thiazol-2-yl)Piperidin-4-yl)Acetamide] | −1.4 | −56.62
NC(=O)N1CCN(c2nc(-c3ccc(Br)cc3)cs2)CC1 [Example 118, 4-(4-(4-Bromophenyl)Thiazol-2-yl)Piperazine-1-Carboxamide] | 2.1 | 88.79
NC(=O)C1CCN(c2ncc(-c3ccc4c(c3)OCCO4)s2)CC1 [Example 120, 1-(5-(2,3-Dihydrobenzo[B][1,4]Dioxin-6-yl)Thiazol-2-yl)Piperidine-4-Carboxamide] | 1.1 | 424.6
NC(=O)C1CCN(c2ncc(-c3cccc(F)c3)s2)CC1 [Example 121, 1-(5-(3-Fluorophenyl)Thiazol-2-yl)Piperidine-4-Carboxamide] | 1.1 | 601.5
NC(=O)C1CCN(c2ncc(-c3ccc(Cl)cc3)s2)CC1 [Example 122, 1-(5-(4-Chlorophenyl)Thiazol-2-yl)Piperidine-4-Carboxamide] | 1.1 | 498.3
NC(=O)C1CCN(c2ncc(-c3ccc4c(c3)OCO4)s2)CC1 [Example 125, 1-(5-(Benzo[D][1,3]Dioxol-5-yl)Thiazol-2-yl)Piperidine-4-Carboxamide] | 1.1 | 589.875
Cc1ccc(-c2ccnc(N3CCC(C(N)=O)CC3)n2)cc1 [Example 126, 1-(4-P-Tolylpyrimidin-2-yl)Piperidine-4-Carboxamide] | 1.1 | 444.6
CC(C)Oc1cccc(-c2ccnc(N3CCC(C(N)=O)CC3)n2)c1 [Example 127, 1-(4-(3-Isopropoxyphenyl)Pyrimidin-2-yl)Piperidine-4-Carboxamide] | 1.1 | 298.225
NC(=O)C1CCN(c2nccc(-c3ccc4c(c3)OCCCO4)n2)CC1 [Example 128, 1-(4-(3,4-Dihydro-2H-Benzo[B][1,4]Dioxepin-7-yl)Pyrimidin-2-yl)Piperidine-4-Carboxamide] | 1.1 | 234.2
NC(=O)C1CCN(c2nccc(-c3ccc4c(c3)OCCO4)n2)CC1 [Example 129, 1-(4-(2,3-Dihydrobenzo[B][1,4]Dioxin-6-yl)Pyrimidin-2-yl)Piperidine-4-Carboxamide] | 1.1 | 364.3
NC(=O)C1CCN(c2nnc(-c3ccc4c(c3)OCCCO4)s2)CC1 [Example 130, 1-(5-(3,4-Dihydro-2H-Benzo[B][1,4]Dioxepin-7-yl)-1,3,4-Thiadiazol-2-yl)Piperidine-4-Carboxamide] | 1.1 | 257.1
CN(C)c1cccc(-c2nnc(N3CCC(C(N)=O)CC3)s2)c1 [Example 132, 1-(5-(3-(Dimethylamino)Phenyl)-1,3,4-Thiadiazol-2-yl)Piperidine-4-Carboxamide] | 1.1 | 448.5
Cc1ccc(-c2nnc(N3CCC(C(N)=O)CC3)s2)cc1 [Example 133, 1-(5-P-Tolyl-1,3,4-Thiadiazol-2-yl)Piperidine-4-Carboxamide] | 1.2 | 54
c1c[nH]c(C2CCN(c3ncc(-c4ccc5c(c4)OCCCO5)s3)CC2)n1 [Example 135, 2-(4-(1H-Imidazol-2-yl)Piperidin-1-yl)-5-(3,4-Dihydro-2H-Benzo[B][1,4] Dioxepin-7-yl)Thiazole] | 1.1 | 129.4
CN(C)c1cccc(-c2cnc(N3CCC(c4ncc[nH]4)CC3)s2)c1 [Example 136, 3-(2-(4-(1H-Imidazol-2-yl)Piperidin-1-yl)Thiazol-5-yl)-N,N-Dimethylaniline] | 1.1 | 188.2
NC(=O)C1CCN(c2ncc(-c3cccc(N4CCCC4)c3)s2)CC1 [Example 137, 1-(5-(3-(Pyrrolidin-1-yl)Phenyl)Thiazol-2-yl)Piperidine-4-Carboxamide] | 1.1 | 685.1
NC(=O)C1CCN(c2ncc(-c3cccc(N4CCCCC4)c3)s2)CC1 [Example 138, 1-(5-(3-(Piperidin-1-yl)Phenyl)Thiazol-2-yl)Piperidine-4-Carboxamide] | 1.1 | 565.6
NC(=O)C1CCN(c2ncc(-c3cccc(N4CCOCC4)c3)s2)CC1 [Example 139, 1-(5-(3-Morpholinophenyl)Thiazol-2-yl)Piperidine-4-Carboxamide] | 1.1 | 275.2
CC(=O)C1CCN(c2ncc(-c3cccc(N(C)C)c3)s2)CC1 [Example 141, 1-(1-(5-(3-(Dimethylamino)Phenyl)Thiazol-2-yl)Piperidin-4-yl)Ethanone] | 1.1 | 224.6
